# Reference: article PMC2851732, “Peptide Inhibitors of Dengue-Virus Entry Target a Late-Stage Fusion Intermediate” (PLoS Pathogens, 2010)
# pIC50: −log10 of the molar value. Ends that are not written are not given here.
# Target: T1, DV2 sE(1–395) postfusion trimer (Dengue virus type 2, UniProt P12823)
# T1 construct: The sE component (residues 1–395) of the ectodomain is in ribbon representation; purchased Hawai'i Biotech
# Assay: Fluorescence polarization binding of FITC-tagged stem peptides to postfusion sE trimer
# Parameters: species or system dengue virus serotype 2
row,Sequence,pIC50
1,AILGDTAWDFGSLGGVFTSIGKA [DV2^413-435],5.70
2,AILGDTAWDFGSLGGVFTSIGKALHQVF [DV2^413-440],6.60
3,AWDFGSLGGVFTSIGKALHQVF [DV2^419-440],6.60
